# Assays:
# [1] = tested on: A-549; assay: Inhibition of cells growth by colorimetric (SRB) assay, A-549; details: for GI50 / CC50: Homo sapiens, A549, 48 h; for GI50: read-out: GI50 A-549, SRB assay, 48 hours exposure; for CC50: read-out: LC50 A-549, SRB assay, 48 hours exposure; for TGI A-549: SRB assay, 48 hours exposure
# Summary of the method: (§1)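 Read-out is sulforhodamine B protein stain (OD 490 nm) after cold TCA fixation, following 48 h continuous exposure to samples spanning 10 to 10^−8 μg/ml.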
# [2] = tested on: DU-145; assay: Inhibition of cells growth by colorimetric (SRB) assay, DU-145; details: for GI50 / CC50: Homo sapiens, DU-145, 48 h; for GI50: read-out: GI50 DU-145, SRB assay, 48 hours exposure; for CC50: read-out: LC50 DU-145, SRB assay, 48 hours exposure; for TGI DU-145: SRB assay, 48 hours exposure
# Summary of the method: as §1
# [3] = tested on: HMEC1; assay: Inhibition of cells growth by colorimetric (SRB) assay, HMEC1; details: for GI50: Homo sapiens, HMEC-1, 48 h, read-out: GI50 H-MEC-1, SRB assay, 48 hours exposure; for TGI H-MEC-1: SRB assay, 48 hours exposure, in M (unit assumed)
# [4] = as above; details: human, HMEC1 cells, LC50 H-MEC-1, SRB assay, 48 hours exposure
# [5] = tested on: IGROV-ET; assay: Inhibition of cells growth by colorimetric (SRB) assay, IGROV-ET; details: for GI50 / CC50: Homo sapiens, 48 h; for GI50: read-out: GI50 IGROV-ET, SRB assay, 48 hours exposure; for CC50: read-out: LC50 IGROV-ET, SRB assay, 48 hours exposure; for TGI IGROV-ET: SRB assay, 48 hours exposure
# Summary of the method: as §1
# [6] = tested on: PANC-1; assay: Inhibition of cells growth by colorimetric (SRB) assay, PANC-1; details: for GI50 / CC50: Homo sapiens, PANC-1, 48 h; for GI50: read-out: GI50 PANC-1, SRB assay, 48 hours exposure; for CC50: read-out: LC50 PANC-1, SRB assay, 48 hours exposure; for TGI PANC-1: SRB assay, 48 hours exposure
# Summary of the method: as §1
# [7] = tested on: SK-OV-3; assay: Inhibition of cells growth by colorimetric (SRB) assay, SK-OV-3; details: for GI50 / CC50: Homo sapiens, SK-OV-3, 48 h; for GI50: read-out: GI50 SKOV-3, SRB assay, 48 hours exposure; for CC50: read-out: LC50 SKOV-3, SRB assay, 48 hours exposure; for TGI SKOV-3: SRB assay, 48 hours exposure
# Summary of the method: as §1
# [8] = tested on: HT-29; assay: Inhibition of cells growth by colorimetric (SRB) assay, HT-29; details: for GI50 / CC50: Homo sapiens, HT-29, 48 h; for GI50: read-out: GI50 HT-29, SRB assay, 48 hours exposure; for CC50: read-out: LC50 HT-29, SRB assay, 48 hours exposure; for TGI HT-29: SRB assay, 48 hours exposure
# Summary of the method: as §1
# [9] = tested on: SK-MEL-28; assay: Inhibition of cells growth by colorimetric (SRB) assay, SK-MEL-28; details: for GI50 / CC50: Homo sapiens, SK-MEL-28, 48 h; for GI50: read-out: GI50 MEL-28, SRB assay, 48 hours exposure; for CC50: read-out: LC50 MEL-28, SRB assay, 48 hours exposure; for TGI MEL-28: SRB assay, 48 hours exposure
# Summary of the method: as §1
# [10] = tested on: K-562; assay: Inhibition of cells growth by colorimetric (SRB) assay, K-562; details: for GI50 / CC50: Homo sapiens, K562, 48 h; for GI50: read-out: GI50 K-562, SRB assay, 48 hours exposure; for CC50: read-out: LC50 K-562, SRB assay, 48 hours exposure; for TGI K-562: SRB assay, 48 hours exposure
# Summary of the method: as §1
# [11] = tested on: LNCaP; assay: Inhibition of cells growth by colorimetric (SRB) assay, LNCaP; details: for GI50 / CC50: Homo sapiens, LNCaP, 48 h; for GI50: read-out: GI50 LN-caP, SRB assay, 48 hours exposure; for CC50: read-out: LC50 LN-caP, SRB assay, 48 hours exposure; for TGI LN-caP: SRB assay, 48 hours exposure
# Summary of the method: as §1
# [12] = tested on: LoVo; assay: Inhibition of cells growth by colorimetric (SRB) assay, LoVo; details: for GI50 / CC50: Homo sapiens, LoVo, 48 h; for GI50: read-out: GI50 LOVO, SRB assay, 48 hours exposure; for CC50: read-out: LC50 LOVO, SRB assay, 48 hours exposure; for TGI LOVO: SRB assay, 48 hours exposure
# Summary of the method: as §1
# [13] = tested on: IGROV-1; assay: Inhibition of cells growth by colorimetric (SRB) assay, IGROV-1; details: for GI50 / CC50: Homo sapiens, IGROV-1, 48 h; for GI50: read-out: GI50 IGROV, SRB assay, 48 hours exposure; for CC50: read-out: LC50 IGROV, SRB assay, 48 hours exposure; for TGI IGROV: SRB assay, 48 hours exposure
# Summary of the method: as §1
# [14] = tested on: SK-BR-3; assay: Inhibition of cells growth by colorimetric (SRB) assay, SK-BR-3; details: for GI50 / CC50: Homo sapiens, SK-BR-3, 48 h; for GI50: read-out: GI50 SK-BR-3, SRB assay, 48 hours exposure; for CC50: read-out: LC50 SK-BR-3, SRB assay, 48 hours exposure; for TGI SK-BR-3: SRB assay, 48 hours exposure
# Summary of the method: as §1
# [15] = tested on: LoVo-Dox; assay: Inhibition of cells growth by colorimetric (SRB) assay, LoVo-Dox; details: for GI50 / CC50: Homo sapiens, 48 h; for GI50: read-out: GI50 LOVO-DOX, SRB assay, 48 hours exposure; for CC50: read-out: LC50 LOVO-DOX, SRB assay, 48 hours exposure; for TGI LOVO-DOX: SRB assay, 48 hours exposure
# Summary of the method: as §1
compound,measurement,setting,value
CSc1nccc2c(-c3cccs3)c3cccnc3n12 [Compound 60],GI50,[1],22.6 µM
same,CC50,[1],≥ 33.6 µM
same,TGI A-549,[1],3.36E−05
same,GI50,[2],≥ 33.6 µM
same,CC50,[2],≥ 33.6 µM
same,TGI DU-145,[2],3.36E−05
same,GI50,[3],22.6 µM
same,TGI H-MEC-1,[3],3.36E−05
same,CC50 at 48 h,[4],≥ 33.6 µM
same,GI50,[5],≥ 33.6 µM
same,CC50,[5],≥ 33.6 µM
same,TGI IGROV-ET,[5],3.36E−05
same,GI50,[6],≥ 33.6 µM
same,CC50,[6],≥ 33.6 µM
same,TGI PANC-1,[6],3.36E−05
same,GI50,[7],≥ 33.6 µM
same,CC50,[7],≥ 33.6 µM
same,TGI SKOV-3,[7],3.36E−05
same,GI50,[8],≥ 33.6 µM
same,CC50,[8],≥ 33.6 µM
same,TGI HT-29,[8],3.36E−05
same,GI50,[9],≥ 33.6 µM
same,CC50,[9],≥ 33.6 µM
same,TGI MEL-28,[9],3.36E−05
same,GI50,[10],≥ 33.6 µM
same,CC50,[10],≥ 33.6 µM
same,TGI K-562,[10],3.36E−05
same,GI50,[11],≥ 33.6 µM
same,CC50,[11],≥ 33.6 µM
same,TGI LN-caP,[11],3.36E−05
same,GI50,[12],≥ 33.6 µM
same,CC50,[12],≥ 33.6 µM
same,TGI LOVO,[12],3.36E−05
same,GI50,[13],10.8 µM
same,CC50,[13],≥ 33.6 µM
same,TGI IGROV,[13],3.36E−05
same,GI50,[14],0.24 µM
same,CC50,[14],3.36 µM
same,TGI SK-BR-3,[14],9.95E−07
same,GI50,[15],≥ 33.6 µM
same,CC50,[15],≥ 33.6 µM
same,TGI LOVO-DOX,[15],3.36E−05
Nc1nccc2c(-c3cccs3)c3cccnc3n12 [Compound 65],GI50,[1],26.4 µM
same,CC50,[1],≥ 37.5 µM
same,TGI A-549,[1],3.75E−05
same,GI50,[2],≥ 37.5 µM
same,CC50,[2],≥ 37.5 µM
same,TGI DU-145,[2],3.75E−05
same,GI50,[3],11.8 µM
same,TGI H-MEC-1,[3],3.75E−05
same,CC50 at 48 h,[4],≥ 37.5 µM
same,GI50,[5],≥ 37.5 µM
same,CC50,[5],≥ 37.5 µM
same,TGI IGROV-ET,[5],3.75E−05
same,GI50,[6],≥ 37.5 µM
same,CC50,[6],≥ 37.5 µM
same,TGI PANC-1,[6],3.75E−05
same,GI50,[7],≥ 37.5 µM
same,CC50,[7],≥ 37.5 µM
same,TGI SKOV-3,[7],3.75E−05
same,GI50,[8],≥ 37.5 µM
same,CC50,[8],≥ 37.5 µM
same,TGI HT-29,[8],3.75E−05
same,GI50,[9],≥ 37.5 µM
same,CC50,[9],≥ 37.5 µM
same,TGI MEL-28,[9],3.75E−05
same,GI50,[10],≥ 37.5 µM
same,CC50,[10],≥ 37.5 µM
same,TGI K-562,[10],3.75E−05
same,GI50,[11],17.1 µM
same,CC50,[11],≥ 37.5 µM
same,TGI LN-caP,[11],3.75E−05
same,GI50,[12],≥ 37.5 µM
same,CC50,[12],≥ 37.5 µM
same,TGI LOVO,[12],3.75E−05
same,GI50,[13],≥ 37.5 µM
same,CC50,[13],≥ 37.5 µM
same,TGI IGROV,[13],3.75E−05
same,GI50,[14],1.46 µM
same,CC50,[14],≥ 37.5 µM
same,TGI SK-BR-3,[14],3.75E−05
same,GI50,[15],≥ 37.5 µM
same,CC50,[15],≥ 37.5 µM
same,TGI LOVO-DOX,[15],3.75E−05

# Reference: patent publication US7772241B2, “Variolin derivatives and their use as antitumor agents” (Pharma Mar S.A., priority 2001, dated 2010)
